As usually defined, the EC50 is the concentration that produces a half-maximal response. The term CC50 denotes the concentration that lowers cell viability or growth by half.

Data set [1] relates to genotype 1a H-77 replicon. Nature of the data set: HCV-1a replicon potency in RLuc-1 cells, bioluminescence. In kind it is cell-based. Conditions: for HCV-1a Replicon Selectivity Index: CC50/EC50, genotype 1a replicon; for EC50: Hepatitis C virus, 72 h, read-out: HCV-1a Replicon EC50 (μM). Background: Replicon systems follow genome replication, usually without infectious particles.

A short description of data set [2]: Cytotoxicity in HCV-1a replicon cells, Promega CellTiter-Glo cell viability assay.

`CC(c1ccc(Cl)cc1)c1nc2c(N3CCN(C(=O)COc4ccc(Cl)cc4)CC3)nc(N)nc2s1` (centres unmarked) [Example 125, 5-amino-7-[4-(4-chlorophenoxyacetyl)piperazin-1-yl]-2-(1-(4-chlorophenyl)ethyl)thiazolo[5,4-d]pyrimidine]: in data set [1], the “HCV-1a Replicon Selectivity Index” value is 1.1 and the concentration giving a half-maximal response (EC50) worked out at 22.6 µM. The compound further showed a cytotoxic concentration (CC50) at 72 h in data set [2] of 24.4 µM.

Regarding `Cc1cccc(NC(=O)N2CCN(c3nc(N)nc4sc(CCc5ccc(F)cc5)nc34)CC2)c1` [Example 133, 5-amino-2-[2-(4-fluorophenyl)ethyl]-7-(4-m-tolylcarbamoylpiperazin-1-yl)-thiazolo[5,4-d]pyrimidine], in data set [1], the “HCV-1a Replicon Selectivity Index” value came to 1.5 and the 50% effective concentration (EC50) amounted to 10.7 µM. In addition, in data set [2], half-maximal cytotoxicity (CC50 at 72 h) was put at 15.8 µM.

As for `Nc1nc(N2CCN(C(=O)COc3ccccc3)CC2)c2nc(CCc3ccc(F)cc3)sc2n1` [Example 134, 5-amino-2-[2-(4-fluorophenyl)ethyl]-7-(4-[2-phenoxyacetyl]piperazin-1-yl)-thiazolo[5,4-d]pyrimidine], the 50% effective concentration (EC50) in data set [1] is > 44.4 µM. Also, in data set [2], the CC50 at 72 h was > 44.4 µM.

In the case of `Nc1nc(N2CCN(S(=O)(=O)Cc3ccccc3)CC2)c2nc(CCc3ccc(F)cc3)sc2n1` [Example 137, 5-amino-2-[2-(4-fluorophenyl)ethyl]-7-[4-phenylmethanesulfonylpiperazin-1-yl]-thiazolo[5,4-d]pyrimidine], in data set [1], the “HCV-1a Replicon Selectivity Index” value stood at 0.8 and the EC50 was 26.9 µM. The compound further registered a cytotoxic concentration (CC50) at 72 h in data set [2] of 21.8 µM.

`Nc1nc(N2CCN(CC(=O)NCCc3ccccc3)CC2)c2nc(CCc3ccc(F)cc3)sc2n1` [Example 141, 5-amino-2-[2-(4-fluorophenyl)ethyl]-7-(4-(phenethylcarbamoyl-methyl)piperazin-1-yl)-thiazolo[5,4-d]pyrimidine]: in data set [1], the “HCV-1a Replicon Selectivity Index” value is reported as 1.0 and the EC50 is 15.8 µM. This compound also came in with a CC50 at 72 h in data set [2] of 16 µM.

As to `Nc1nc(N2CC[C@@H](NC(=O)COc3ccc(Cl)cc3)C2)c2nc(CCc3ccc(F)cc3)sc2n1` [Example 143, 5-amino-2-[2-(4-fluorophenyl)ethyl]-7-(3-(R)-[2-(4-chlorophenoxy)-acetylamino]pyrrolidin-1-yl)-thiazolo[5,4-d]pyrimidine], in data set [1], the “HCV-1a Replicon Selectivity Index” value amounted to 0.7 and the EC50 is > 44.4 µM. The compound also had a CC50 at 72 h in data set [2] of 30.4 µM.

Regarding `Nc1nc(NC2CCCN(C(=O)OCc3ccccc3)C2)c2nc(CCc3ccc(F)cc3)sc2n1` (centres unmarked) [Example 145, 5-amino-2-[2-(4-fluorophenyl)ethyl]-7-(1-benzyloxycarbonylpiperidin-3-ylamino)-thiazolo[5,4-d]pyrimidine], in data set [1], the “HCV-1a Replicon Selectivity Index” value turned out to be 2.1 and the half-maximal effective concentration (EC50) came out at 13.1 µM. This compound also gave a cytotoxic concentration (CC50) at 72 h in data set [2] of 27.6 µM.

For `Nc1nc(N[C@H]2CCN(C(=O)COc3ccc(Cl)cc3)C2)c2nc(CCc3ccc(F)cc3)sc2n1` [Example 147, 5-amino-2-[2-(4-fluorophenyl)ethyl]-7-(1-(4-chlorophenoxyacetyl)pyrrolidin-3-(S)-ylamino)-thiazolo[5,4-d]pyrimidine], in data set [1], the “HCV-1a Replicon Selectivity Index” value is 0.5 and the concentration for a half-maximal effect (EC50) was 31 µM. Moreover, in data set [2], the half-maximal cytotoxic concentration (CC50) at 72 h turned out to be 15.5 µM.

`CCC(c1ccc(F)cc1)c1nc2c(N3CCN(C(=O)COc4ccc(Cl)cc4)CC3)nc(N)nc2s1` (centres unmarked) [Example 150, 5-amino-2-[1-(4-fluorophenyl)propyl]-7-(4-[2-(4-chlorophenoxy)acetyl]piperazin-1-yl)thiazolo[5,4-d]pyrimidine]: in data set [1], the “HCV-1a Replicon Selectivity Index” value amounted to 2.0 and the EC50 was 13.1 µM. This compound also came in with a CC50 at 72 h in data set [2] of 25.9 µM.

As to `Nc1nc(N2CCN(C(=O)COc3ccc(Cl)cc3)CC2)c2nc(C(c3ccc(F)cc3)C3CCCC3)sc2n1` (centres unmarked) [Example 151, 5-amino-2-[cyclopentyl-(4-fluorophenyl)methyl]-7-(4-[2-(4-chlorophenoxy)acetyl]piperazin-1-yl)thiazolo[5,4-d]pyrimidine], in data set [1], the “HCV-1a Replicon Selectivity Index” value came out at 2.1 and the concentration giving a half-maximal response (EC50) was determined as 14.7 µM. Further, the CC50 at 72 h in data set [2] worked out at 31.2 µM.

`Nc1nc(N2CCN(C(=O)COc3ccc(Cl)cc3)CC2)c2nc(CCc3cccs3)sc2n1` [Example 154, 5-amino-2-(2-thiophen-2-ylethyl)-7-(4-[2-(4-chloro-phenoxy)acetyl]piperazin-1-yl)thiazolo[5,4-d]pyrimidine]: the 50% effective concentration (EC50) in data set [1] is > 44.4 µM. The CC50 at 72 h in data set [2] is > 44.4 µM.

For the compound `Nc1nc(N2CCN(C(=O)c3ccc(Cl)cc3)CC2)c2nc(CCc3cccs3)sc2n1` [Example 156, 5-amino-2-(2-thiophen-2-ylethyl)-7-(4-(4-chloro-benzoyl)piperazin-1-yl)thiazolo[5,4-d]pyrimidine], in data set [1], the “HCV-1a Replicon Selectivity Index” value came to 1.5 and the EC50 came to 20.7 µM. In data set [2], this compound yielded a CC50 at 72 h of 30.7 µM.

Turning to `Cc1cccc(NC(=O)N2CCN(c3nc(N)nc4oc(CCc5ccc(F)cc5)nc34)CC2)c1` [Example 196, 5-amino-2-[2-(4-fluorophenyl)ethyl]-7-(4-m-tolylcarbamoylpiperazin-1-yl)-oxazolo[5,4-d]pyrimidine], in data set [1], the “HCV-1a Replicon Selectivity Index” value is recorded as 1.6 and the concentration giving a half-maximal response (EC50) was 15.6 µM. Also, the CC50 at 72 h in data set [2] amounted to 24.5 µM.

On to `Nc1nc(N2CCN(C(=O)COc3ccc(Cl)cc3)CC2)c2cc(-c3ccccc3)sc2n1` [Example 329, 1-(4-(2-amino-6-phenylthieno[2,3-d]pyrimidin-4-yl)piperazin-1-yl)-2-(4-chlorophenoxy)ethanone], for which, in data set [1], the “HCV-1a Replicon Selectivity Index” value is on record as 3.8 and the 50% effective concentration (EC50) was found to be 11.8 µM. For the same compound, the CC50 at 72 h in data set [2] was > 44.4 µM.

Regarding `Cc1cccc(NC(=O)N2CCN(c3nc(N)nc4sc(-c5ccccc5)cc34)CC2)c1` [Example 330, 4-(2-amino-6-phenylthieno[2,3-d]pyrimidin-4-yl)-N-m-tolylpiperazine-1-carboxamide], in data set [1], the “HCV-1a Replicon Selectivity Index” value was found to be 6.0 and the EC50 worked out at 7.2 µM. The same compound came in with a half-maximal cytotoxic concentration (CC50) at 72 h in data set [2] of 43.5 µM.

As for `Nc1nc(N2CCN(C(=O)Nc3ccc(Cl)cc3)CC2)c2cc(-c3ccccc3)sc2n1` [Example 331, 4-(2-amino-6-phenylthieno[2,3-d]pyrimidin-4-yl)-N-(4-chlorophenyl)piperazine-1-carboxamide], in data set [1], the “HCV-1a Replicon Selectivity Index” value worked out at 1.8 and the EC50 was 18.7 µM. In data set [2], this compound had a CC50 at 72 h of 34.3 µM.

As to `Nc1nc(N2CCN(C(=O)COc3ccccc3)CC2)c2cc(-c3ccccc3)sc2n1` [Example 332, 1-(4-(2-amino-6-phenylthieno[2,3-d]pyrimidin-4-yl)piperazin-1-yl)-2-phenoxyethanone], in data set [1], the “HCV-1a Replicon Selectivity Index” value is recorded as 0.9 and the EC50 is > 44.4 µM. The midpoint of cytotoxicity in data set [2], the CC50 at 72 h, lay at 38.5 µM.

With `COc1ccc(-c2nc3c(N4CCN(C(=O)COc5ccc(Cl)cc5)CC4)nc(N)nc3[nH]2)cc1OC` [Example 390, 1-(4-(2-amino-8-(3,4-dimethoxyphenyl)-9H-purin-6-yl)piperazin-1-yl)-2-(4-chlorophenoxy)ethanone], in data set [1], the “HCV-1a Replicon Selectivity Index” value was determined as 9.9 and the half-maximal effective concentration (EC50) turned out to be 1.7 µM. Half-maximal cytotoxicity in data set [2] (CC50 at 72 h) was put at 17.3 µM.

For `Nc1nc(N2CCN(C(=O)COc3ccc(Cl)cc3)CC2)c2nc(-c3ccc(Cl)cc3)[nH]c2n1` [Example 392, 1-(4-(2-amino-8-(4-chlorophenyl)-9H-purin-6-yl)piperazin-1-yl)-2-(4-chlorophenoxy)ethanone], in data set [1], the “HCV-1a Replicon Selectivity Index” value stood at 4.6 and the EC50 came to 2.7 µM. Also, the CC50 at 72 h in data set [2] amounted to 12.2 µM.

Take `Nc1nc(N2CCN(C(=O)COc3ccc(Cl)cc3)CC2)c2nc(-c3cccc(Cl)c3)[nH]c2n1` [Example 393, 1-(4-(2-amino-8-(3-chlorophenyl)-9H-purin-6-yl)piperazin-1-yl)-2-(4-chlorophenoxy)ethanone]: in data set [1], the “HCV-1a Replicon Selectivity Index” value came out at 2.5 and the EC50 was 3.2 µM. Besides, the CC50 at 72 h in data set [2] was determined as 8.1 µM.

For the compound `Nc1nc(N2CCN(C(=O)COc3ccc(Cl)cc3)CC2)c2nc(-c3ccc(C(F)(F)F)cc3)[nH]c2n1` [Example 394, 1-(4-(2-amino-8-(4-(trifluoromethyl)phenyl)-9H-purin-6-yl)piperazin-1-yl)-2-(4-chlorophenoxy)ethanone], in data set [1], the “HCV-1a Replicon Selectivity Index” value is reported as 1.2 and the 50% effective concentration (EC50) amounted to 9 µM. The compound also had a half-maximal cytotoxic concentration (CC50) at 72 h in data set [2] of 10.6 µM.

`Nc1nc(N2CCN(C(=O)COc3ccc(Cl)cc3)CC2)c2nc(-c3ccc(OC(F)(F)F)cc3)[nH]c2n1` [Example 395, 1-(4-(2-amino-8-(4-(trifluoromethoxy)phenyl)-9H-purin-6-yl)piperazin-1-yl)-2-(4-chlorophenoxy)ethanone]: in data set [1], the “HCV-1a Replicon Selectivity Index” value came out at 1.1 and the EC50 was 9.9 µM. Also, in data set [2], the CC50 at 72 h is 10.7 µM.

As for `CC(C)(C)c1nc2c(N3CCN(C(=O)COc4ccc(Cl)cc4)CC3)nc(N)nc2[nH]1` [Example 399, 1-(4-(2-amino-8-tert-butyl-9H-purin-6-yl)piperazin-1-yl)-2-(4-chlorophenoxy)ethanone], in data set [1], the “HCV-1a Replicon Selectivity Index” value is 1.2 and the 50% effective concentration (EC50) worked out at 24.7 µM. In addition, in data set [2], the midpoint of cytotoxicity, the CC50 at 72 h, lay at 29.1 µM.

In the case of `COc1cccc(C(=O)N2CCN(c3nc(N)nc4[nH]c(-c5ccc(F)cc5)nc34)CC2)c1` [Example 402, (4-(2-amino-8-(4-fluorophenyl)-9H-purin-6-yl)piperazin-1-yl)(3-methoxyphenyl)methanone], the EC50 in data set [1] is > 44.4 µM. The CC50 at 72 h in data set [2] was > 44.4 µM.

In the case of `Nc1nc(N2CCN(C(=O)Cc3cccs3)CC2)c2nc(-c3ccc(F)cc3)[nH]c2n1` [Example 403, 1-(4-(2-amino-8-(4-fluorophenyl)-9H-purin-6-yl)piperazin-1-yl)-2-(thiophen-2-yl)ethanone], in data set [1], the “HCV-1a Replicon Selectivity Index” value amounted to 0.8 and the concentration giving a half-maximal response (EC50) is 11.3 µM. Half-maximal cytotoxicity in data set [2] (CC50 at 72 h) was put at 9.6 µM.

Take `CC(=O)N1CCN(c2nc(N)nc3[nH]c(-c4ccc(F)cc4)nc23)CC1` [Example 408, 1-(4-(2-amino-8-(4-fluorophenyl)-9H-purin-6-yl)piperazin-1-yl)ethanone]: the EC50 in data set [1] is > 44.4 µM. The CC50 at 72 h in data set [2] was > 44.4 µM.
